Experimental data: patent publication EP2173323B1, “STIMULATING GEL” (LRC Products Limited, priority 2007, dated 2009)

Experiments:
[1] = Cooling strength of coolants relative to menthol; conditions: menthol = 100
[2] = Penetration of coolants across body surfaces
From the text: By "penetration enhancer" we mean any compound which aids penetration or absorption of coolants (or other active ingredients) into and through body surfaces, for example, compounds which aid penetration of coolants into and through the skin and mucosal membranes. Preferably, penetration enhancers as used herein aid penetration and/or absorption of coolants which are cyclic carboxamides, such as N-cthyl-p-menthane-3-carboxamide, and/or aid penetration and/or absorption of (-)-isopulegol across body surfaces. Such penetration enhancement may potentiate the action of coolants, or other active ingredients. Any suitable penetration enhancer may be used. Preferred penetration enhancers include ethoxy diglycol, limonene, isopropyl palmitate, sodium lauryl sulphate and L-arginine. Optionally, the penetration enhancer may also act as a vasodilator.
Optionally, the compositions further comprise a penetration enhancer. The penetration enhancer can be any compound which aids penetration or absorption of the cyclic carboxamide and/or of isopulegol into and through body surfaces, for example, compounds which aid penetration into and through the skin and mucosal membranes. Any suitable penetration enhancer may be used. Preferred penetration enhancers include ethoxy diglycol, limonene; isopropyl palmitate; and sodium lauryl sulphate. […]

[3] = Crystallisation / clouding at low temperatures; assay type: physicochemical
[4] = Volatility compared with menthol; assay type: physicochemical

Row | SMILES | Cooling strength relative to menthol [1] | other results
1 | CC1CCC(C(C)C)C(O)C1 (stereo not drawn) [Menthol] | 100 | 
2 | N=C(N)NCCC[C@H](N)C(=O)O [L-arginine] |  | penetration enhancement of coolants (cyclic carboxamides and isopulegol) [2]: aids penetration of coolants
3 | C=C(C)C1CCC(C)CC1O (stereo not drawn) [Isopulegol, 2-isopropenyl-5-methyl-cyclohexanol] | 25 | 
4 | CNC(=O)C(C)(C(C)C)C(C)C [WS-23] | 75 | 
5 | CC1CCC(C(C)C)C2(C1)OCC(CO)O2 (stereo not drawn) [Menthone glycerine acetal] | 41 | 
6 | CC1CCC(C(C)C)C(OC(=O)C(C)O)C1 (stereo not drawn) [Menthyl lactate] | 43 | 
7 | CCNC(=O)C1CC(C)CCC1C(C)C (stereo not drawn) [WS-3, N-ethyl-p-menthane-3-carboxamide] | 150 | crystallisation at low temperatures [3]: does not crystallise at low temperatures; volatility [4]: lower volatility than menthol
